Reference: PMC7998721, “A Comparative Study of the Effects of Platinum (II) Complexes on β-Amyloid Aggregation: Potential Neurodrug Applications” (International Journal of Molecular Sciences, 2021)

Experiments:
[1] = target: T1, β-amyloid Aβ21–40 (C-terminal fragment of Aβ1–40) (Homo sapiens, UniProt P05067); assay: UV/Vis titration; ESI-MS […] adduct; also ThT aggregation; type: binding
T1 construct: gene APP

[2] = target: T1, β-amyloid Aβ21–40 (C-terminal fragment of Aβ1–40); assay: UV/Vis titration; ESI-MS […] adduct; also ThT aggregation and CD; type: binding

T1 sequence (P05067 692-711): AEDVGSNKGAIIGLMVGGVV

Row | Compound | EC50 [1] [µM] | EC50 [2] [µM]
1 | [Cl][Pt-2]1([Cl])[n+]2cccc3ccc4ccc[n+]1c4c32 [Pt-phen, (SP-4-2)-dichlorido(1,10-phenanthroline)platinum(II)] | 49 ± 20 | 
2 | [Cl][Pt-2]12[n+]3ccccc3-c3cccc([n+]31)-c1cccc[n+]12 [Pt-terpy, (SP-4-2)-chlorido(2,2′:6′,2′′-terpyridine)platinum(II) chloride] |  | 68 ± 14
